System: A2 molecules
Type: binding, human

## M L L A V L Y C L (SEQ ID NO: 5) [tyrosinase 1-9]
  binding affinity for A2 molecules: significantly lower affinity

— patent publication US8282935B2 (priority 2001, dated 2012)
